Data on one compound can be found in patent US20230303581A1, “ORALLY BIOAVAILABLE, BRAIN-PENETRANT COMPOUND WITH SELECTIVITY FOR THE CANNABINOID TYPE 2 RECEPTOR WITH POTENTIAL USE TOWARDS VISCERAL PAIN MANAGEMENT AND NEURODEGENERATIVE DISORDERS” (University of Mississippi, priority 2022, published 2023).

One data set concerns the target human CB2 receptors (Homo sapiens (Human), UniProt P34972). The data set can be described thus: Cannabinoid receptor binding (displacement) assay, CB2. Conditions: CB2, full competition curves. The method, then:
The affinities of the compounds for CB1 and CB2 receptors were examined using displacement assays, as previously described. Briefly, cell membranes from CHO cells expressing human CB1 or human CB2 receptors were isolated using differential centrifugation. Test compounds reconstituted in DMSO and were incubated with the isolated membrane in binding buffer (50 mM Tris-HCl, 1 mM EDTA, 3 mM MgCl2, 5 mg/mL BSA, pH 7.4) along with 2.5 nM [^3H]CP-55,940. Total binding was assessed in the presence of equal concentration of DMSO, while non-specific binding was determined in the presence of 10 μM CP-55,940, and background binding was determined in wells lacking membrane. Following incubation at 30° C. for 60 min, the binding reactions were terminated by vacuum filtration through Whatman GF/C filters. The filters were then washed twice with ice-cold buffer (50 mM Tris-HCl, 1 mg/mL BSA). Liquid scintillation cocktail was added to each well and the total tritiated counts per minute were analyzed using a TopCount scintillation counter. Background counts were subtracted from all wells and the percent displacement from total binding was calculated.
The compounds were initially screened at 10 μM concentrations. If they produced at least ±30% displacement of the radioligand, then full competition curves were constructed. Ki values were calculated using GraphPad Prism (San Diego, CA, USA) and Kd values determined using a 1 site fit. All assays were run in technical and biological replicates so that the n=5-6. PK Evaluation in CD-1 Mice
The CB1/CB2 receptor binding activities of analogs 4a-4q were assessed via radioactivity-based competitive binding assays using [^3H]CP55,940, an extensively studied radioligand that is frequently used for cannabinoid assays. […] In preliminary screening, all 17 synthetic PBD compounds (4a-4q) were subjected to in vitro CB1 and CB2 binding assays at a single concentration of 10 μM. […] Therefore, the most promising ligands (4k and 4q) were selected for assessment in full competition curves against CB1 and CB2.

Data set [1] deals with mice. Description: Acetic acid-induced writhing test. It counts as in vivo. The text has this:
Acetic acid-induced writhing is widely used for assessing analgesic effects against inflammatory pain of peripheral origin.
For orientation: In writhing tests, fewer writhes than in controls are read as antinociception.

In data set [2] the test system is mice. Description: Conditioned place preference test. Type of data set: in vivo. To be noted: FIG. 4. The text has this: Conditioned place preference testing is used to assess a compound's rewarding effects in order to gauge potential abuse liability. Mice are “conditioned” to associate distinctly lighted/colored/textured chambers with a rewarding drug (e.g., opioid) or no drug. If the mice sense a rewarding effect of the drug, they will prefer to occupy the chamber associated with that drug. FIG. 4 presents the results of a conditioned place preference test for 3 groups of mice (i.e., vehicle, oxycodone treated, and compound 4k treated).

As a reminder, the Ki is the equilibrium dissociation constant of an inhibitor or competing ligand from its target.

“Also recorded” adds a separate entry of the source.

Sequence of human CB2 receptors (P34972 whole entry): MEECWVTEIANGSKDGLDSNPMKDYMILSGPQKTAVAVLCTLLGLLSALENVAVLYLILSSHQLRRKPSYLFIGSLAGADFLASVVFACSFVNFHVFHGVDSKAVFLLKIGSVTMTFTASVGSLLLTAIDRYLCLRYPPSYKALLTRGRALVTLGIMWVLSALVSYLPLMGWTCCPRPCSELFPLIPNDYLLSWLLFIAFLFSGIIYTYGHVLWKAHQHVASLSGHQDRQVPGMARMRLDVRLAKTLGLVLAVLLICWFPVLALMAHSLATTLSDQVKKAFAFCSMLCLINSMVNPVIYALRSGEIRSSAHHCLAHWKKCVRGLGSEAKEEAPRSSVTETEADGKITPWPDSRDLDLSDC

For `O=C1c2ccc(Cl)cc2N/C(=N/N=C/c2cc3ccccc3s2)[C@@H]2CCCN12` [Compound 4k], the affinity on human CB2 receptors, expressed as Ki, was 146 nM. For the same compound, the “number writhes per 5 min” value in the data set with mice [1] (FIG. 3A, 4k 5 mg/kg versus vehicle) is given as “lower”. Further, in the data set with mice [1] (FIG. 3B, 30 min), the “total frequency of writhes over the entire experiment” value was “lowest”. The “writhing over 30 minutes” value in the data set with mice [1] (oxycodone 3 mg/kg, compound 4k 5 mg/kg, versus vehicle) was “attenuate writhing; also recorded: significantly less writhing”. The “place preference (rewarding effect, abuse liability)” value with mice [2] is “no significant rewarding effects; also recorded: no such preference”.
